Experiments:
Lung [1] = assay: Biodistribution in Rattus norvegicus Wistar albino (rat) lung at 74 MBq/umol, iv administered 60 min post dose of non radiolabelled compound measured at 150 min; format: ADME, organism-based; settings: in vivo, 2.5 h
Stomach [2] = assay: Biodistribution in Rattus norvegicus Wistar albino (rat) stomach at 74 MBq/umol, iv after 60 min; format: ADME, organism-based; settings: in vivo, 1 h
[3] = Ratio of drug uptake in Rattus norvegicus Wistar albino (rat) lung to blood at 74 MBq/umol, iv measured at 30 min; format: ADME, organism-based
[4] = Metabolic stability in Homo sapiens (human) serum at 3 hr; format: ADME; settings: read-out: Stability
Rattus norvegicus = assay: Ratio of drug uptake in Rattus norvegicus Wistar albino (rat) lung to muscle at 74 MBq/umol, iv measured at 30 min; settings: in vivo, 0.5 h
Kidney [5] = assay: Biodistribution in Rattus norvegicus Wistar albino (rat) kidney at 74 MBq/umol, iv measured at 60 min; format: ADME, organism-based; settings: in vivo, 1 h
[6] = Metabolic stability in Homo sapiens (human) serum at 4 hr; format: ADME; settings: read-out: Stability
Lung [7] = assay: Biodistribution in Rattus norvegicus Wistar albino (rat) lung at 74 MBq/umol, iv measured at 30 min; format: ADME, organism-based; settings: in vivo, 0.5 h
[8] = Metabolic stability in Homo sapiens (human) serum at 2 hr; format: ADME; settings: read-out: Stability
[9] = Biodistribution in Rattus norvegicus Wistar albino (rat) lung at 74 MBq/umol, iv administered 60 min post dose of non radiolabelled compound measured at 30 min; format: ADME, organism-based; settings: read-out: Drug uptake
Large intestine [10] = assay: Biodistribution in Rattus norvegicus Wistar albino (rat) large intestine at 74 MBq/umol, iv measured at 60 min; format: ADME, organism-based; settings: in vivo, 1 h
[11] = Metabolic stability in Homo sapiens (human) serum at 24 hr; format: ADME; settings: read-out: Stability
Large intestine [12] = assay: Biodistribution in Rattus norvegicus Wistar albino (rat) large intestine at 74 MBq/umol, iv after 60 min; format: ADME, organism-based; settings: in vivo, 1 h
Small intestine [13] = assay: Biodistribution in Rattus norvegicus Wistar albino (rat) small intestine at 74 MBq/umol, iv measured at 60 min; format: ADME, organism-based; settings: in vivo, 1 h
Pancreas = assay: Biodistribution in Rattus norvegicus Wistar albino (rat) pancreas at 74 MBq/umol, iv measured at 30 min; format: ADME, organism-based; settings: in vivo, 0.5 h
Liver [14] = assay: Biodistribution in Rattus norvegicus Wistar albino (rat) liver at 74 MBq/umol, iv after 60 min; format: ADME, organism-based; settings: in vivo, 1 h
Kidney [15] = assay: Biodistribution in Rattus norvegicus Wistar albino (rat) kidney at 74 MBq/umol, iv after 60 min; format: ADME, organism-based; settings: in vivo, 1 h
Small intestine [16] = assay: Biodistribution in Rattus norvegicus Wistar albino (rat) small intestine at 74 MBq/umol, iv after 60 min; format: ADME, organism-based; settings: in vivo, 1 h
Liver [17] = assay: Biodistribution in Rattus norvegicus Wistar albino (rat) liver at 74 MBq/umol, iv measured at 60 min; format: ADME, organism-based; settings: in vivo, 1 h
[18] = Biodistribution in Rattus norvegicus Wistar albino (rat) lung at 74 MBq/umol, iv administered 60 min post dose of non radiolabelled compound measured at 60 min; format: ADME, organism-based; settings: read-out: Drug uptake
Stomach [19] = assay: Biodistribution in Rattus norvegicus Wistar albino (rat) stomach at 74 MBq/umol, iv measured at 60 min; format: ADME, organism-based; settings: in vivo, 1 h
[20] = Octanol-water partition coefficient of the compound; format: physicochemical; settings: read-out: log KOW

Question: For `O=C(O[C@@H]1Cc2c(cc(O)c([131I])c2O)O[C@@H]1c1cc(O)c(O)c(O)c1)c1cc(O)c(O)c(O)c1` [[131I]-EPIGALLOCATECHIN GALLATE], which Drug uptake (Lung [1]) is on record?
Answer: 0.22 % ID/g

Question: And the Drug uptake (Stomach [2])?
Answer: Not Active

Question: What about the Kp at 0.5 h [3] of the same compound?
Answer: 0.96

Question: And the remaining at 3 h [4]?
Answer: 86%

Question: What about the Ratio (Rattus norvegicus) of the same compound?
Answer: 2.69

Question: What about the Drug uptake (Kidney [5]) of the same compound?
Answer: 0.37 % ID/g

Question: And the remaining at 4 h [6]?
Answer: 84%

Question: What about the Drug uptake (Lung [7]) of the same compound?
Answer: 0.45 % ID/g

Question: What about the remaining at 2 h [8] of the same compound?
Answer: 87%

Question: And the tissue uptake at 0.5 h [9]?
Answer: 0.25 %ID/g

Question: What about the Drug uptake (Large intestine [10]) of the same compound?
Answer: 1.04 % ID/g

Question: What about the remaining at 24 h [11] of the same compound?
Answer: 83%

Question: And the Drug uptake (Large intestine [12])?
Answer: Not Active

Question: What about the Drug uptake (Small intestine [13]) of the same compound?
Answer: 0.71 % ID/g

Question: And the Drug uptake (Pancreas)?
Answer: 0.32 % ID/g

Question: And the Drug uptake (Liver [14])?
Answer: Not Active

Question: What about the Drug uptake (Kidney [15]) of the same compound?
Answer: Not Active

Question: What about the Drug uptake (Small intestine [16]) of the same compound?
Answer: Not Active

Question: And the Drug uptake (Liver [17])?
Answer: 0.23 % ID/g

Question: What about the tissue uptake at 1 h [18] of the same compound?
Answer: 0.23 %ID/g

Question: And the Drug uptake (Stomach [19])?
Answer: 2.76 % ID/g

Question: And the logP [20]?
Answer: 1.46

— ChEMBL document CHEMBL3044537, “Radiolabeling of EGCG with 131I and biodistribution in rats” (Med Chem Res, 2012)
